Measurements reported in patent US9428445B2, “Amine compounds and their use as zero or low VOC neutralizers” (ANGUS Chemical Company, priority 2012, dated 2016).
Where a name gives a salt, the structure may show the parent alone. Read-outs that look alike come from different tables or passages of the source.

Assays:
Type in all cases: physicochemical
[1] = Neutral equivalent by titration
Method: (§1) Also using titration, the neutral equivalent is determined to be 168, which matches the molecule's molecular weight. However, upon inclusion into a paint formulation, slightly less (2%) of this molecule is needed to regulate pH than a control compound (2-amino-2-ethyl-1,3-propanediol (AEPD)) with a measured neutralization equivalent of 124. Thus, the second pKa contributes to pH regulation and contributes to the value of the compound as a neutralizer in paint formulations.

Thermal analysis (TGA) = test: Thermal analysis (TGA)
Description: (§2) Thus, this material can be classified as a zero VOC using any of the three methods outlined in CARB Method 310.

[2] = VOC determination per CARB Method 310 (vapor pressure, GC test)
Method: Zero VOC can be defined in one of three ways according to California Air Resources Board (CARB) Method 310 for VOC determination: the vapor pressure can be below 0.1 mm Hg at 20° C., the boiling point can be above 216° C., or the compound must pass a gas chromatograph test (EPA Method 18, 8240B, 8260B,
as §2

[3] = Acid dissociation constants by standard titration method; settings: read-out: acid dissociation constant (pKa)
Method: as §1

neutral equivalent / neutralization equivalent [1] | boiling point (Thermal analysis (TGA)) | decomposition temperature (Thermal analysis (TGA)) [°C] | vapor pressure [2] | VOC classification ([2]; any of the three methods outlined in CARB Method 310) | elution on the GC ([2]; cannot be vaporized, GC testing methods for CARB compliance) | pKa ([3]; primary amine) | pKa ([3]; sodium carboxylate) | Compound
124 |  |  |  |  |  |  |  | CCC(N)(CO)CO [AEPD, 2-amino-2-ethyl-1,3-propanediol, reference compound]
168 | no boiling point | > 275 | no discernable vapor pressure | zero VOC | does not elute | 9.9 | 6.1 | CC(C)(N)CNCC(=O)O [Example 1, N-[2-(amino)-2-methylpropyl]-glycine (Sodium Salt)]
